Reference: PubChem BioAssay AID179 (DTP/NCI, 2004)
Active and inactive are the calls of the source.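 How the source made its calls: active means compounds giving half or more protection of infected cells from virus-caused growth loss, again on retest; inactive means the rest.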 Where a SMILES comes first, the peptide text is derived from it. Side-chain parts run from the residue outwards. The star is where a group is joined. Cbz = O=C(OCc1ccccc1)*; Boc = CC(C)(C)OC(=O)*

System: CEM cells HIV-1 protection, formazan growth assay
Assay: NCI AIDS Antiviral Assay
Details: for IC50: measured here: growth of uninfected CEM cells
In short: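 Soluble formazan readout of cell growth; CEM cells ± HIV-1; 5 drug concs. ≥50% protection → retest; ≥50% again = moderately active; reproducible 100% = confirmed active.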

`CC(C)CC(NC(=O)OCc1ccccc1)C(=O)NCCCCC(NC(=O)C(CCCCNC(=O)C(CC(C)C)NC(=O)OCc1ccccc1)NC(=O)C(CCCCNC(=O)C(CC(C)C)NC(=O)OCc1ccccc1)NC(=O)C(CCCCNC(=O)C(CC(C)C)NC(=O)OCc1ccccc1)NC(=O)OC(C)(C)C)C(=O)O` (configuration not stated) (Boc-K([Leu-Cbz])K([Leu-Cbz])K([Leu-Cbz])K([Leu-Cbz])-OH; configuration not given here) was tested, and the EC50 was greater than 100 µM and the IC50 was greater than 100 µM.

In the case of `COC1=CCC2=C(CC[C@H]3[C@H]2CCP3(C)=S)C1` (some centres not stated), the outcome is reported as “inactive”.

In the case of `CC(=O)OCC1OC(n2c(-c3ccc(C)cc3)cc(-c3ccco3)c(C#N)c2=S)C(OC(C)=O)C(OC(C)=O)C1OC(C)=O` (configuration not stated), the EC50 is reported as greater than 200 µM and the IC50 is reported as 155 µM.

For `COc1cc2ccc(CC(=O)O)cc2cc1OC`, the outcome was “inactive”.

For `O=C(CCc1nc(=S)[nH][nH]1)Nc1ccc(Cl)c(Cl)c1`, the outcome was “inactive”.

`O=C(NNC(=S)NCc1ccccc1)C12CC3CC(CC(C3)C1)C2` showed an EC50 greater than 200 µM and an IC50 of 25.1 µM.

`Cc1ccc(NC(=O)CCc2nc(=S)[nH][nH]2)cc1` showed an EC50 of 251 µM and an IC50 of 331 µM.

For `COc1ccc(C2C3C(=O)C=CC(=O)C3[C@@H]2C)cc1OC` (some centres not stated), the EC50 was greater than 174 µM and the IC50 was 13.2 µM.

With `CC(Oc1ccc(OCC2CCCCC2)cc1)C(=O)NCc1ccco1` (configuration not stated) the EC50 was greater than 28.2 µM and the IC50 was greater than 28.2 µM.

Work on `COc1cc(CNc2nc3ccc(C(F)(F)F)cc3nc2-c2ccccc2)cc(OC)c1OC` yielded an EC50 greater than 11.2 µM and an IC50 greater than 11.2 µM.

Molecule `OCC1C2CCC3(OCCO3)C12` (configuration not stated) has an EC50 greater than 200 µM and an IC50 greater than 200 µM.

With `CN(C)CCN(C)CC(O)CO` (configuration not stated) the outcome was “inactive”.

With `Nc1ccc2c(O)c(N=Nc3ccc(N=Nc4ccc(S(=O)(=O)O)cc4)cc3)c(S(=O)(=O)O)cc2c1N=Nc1ccc(N=Nc2ccc(S(=O)(=O)O)cc2)cc1` the outcome was “active”.

`COc1ccc(Nc2ccc3c4c(cccc24)C(=O)N(c2ccc(OC)cc2)C3=O)cc1` showed an EC50 greater than 200 µM and an IC50 of 31.6 µM.

Work on `S=C1N(c2ccc(Br)cc2)C2=Nc3ccccc3SC(=C2N=Nc2ccccc2)N1c1ccc(Cl)cc1` yielded an EC50 greater than 37.2 µM and an IC50 of 17 µM.

Molecule `O=C(CCc1nnc2s/c(=C\c3ccc(Cl)c(Cl)c3)c(=O)n12)Nc1ccc(Cl)c(Cl)c1` has an EC50 greater than 13.2 µM and an IC50 greater than 13.2 µM.

With `CC(=O)Oc1ccc2c(C)cc(=O)oc2c1OC(C)=O` the EC50 was greater than 200 µM and the IC50 was 69.2 µM.

Work on `COC(=O)c1nn(C(=N)c2ccc(Cl)cc2)c2c1CCC2` yielded an EC50 greater than 813 µM and an IC50 greater than 813 µM.

Work on `COc1cccc2c1cc([N+](=O)[O-])c1c(C(=O)O)cc3c(c12)OCO3` yielded an EC50 greater than 200 µM and an IC50 of 19.1 µM.

`COc1ccc(N/N=C2\CCOc3ccc(C)cc3C2=O)cc1` showed an EC50 greater than 20 µM and an IC50 of 12 µM.

In the case of `c1ccc2c(c1)[nH]c1c(N3CCOCC3)nnc(N3CCOCC3)c12`, the EC50 is reported as greater than 200 µM and the IC50 is reported as greater than 200 µM.

Work on `CCCCCCCCCCn1nnc2c(=O)[nH]c(N)nc21` yielded an EC50 greater than 200 µM and an IC50 of 52.5 µM.

Molecule `CCOC(=O)/C(F)=C/c1cccc(C)c1` has an EC50 greater than 126 µM and an IC50 greater than 126 µM.

In the case of `Cc1ccc(NC(Nc2ccc(C)cc2C)=C(/C=C(\Cl)[N+](=O)[O-])[N+](=O)[O-])c(C)c1`, the EC50 is reported as greater than 200 µM and the IC50 is reported as 2.51 µM.

Molecule `COc1ccc(C(OCC2OC(N3CN4C(=NC3=O)N(C(=O)C(C)C)C(OC(=O)C(C)C)C4OC(=O)C(C)C)CC2OP(OC)N(C(C)C)C(C)C)(c2ccccc2)c2ccc(OC)cc2)cc1` (configuration not stated) has an EC50 greater than 100 µM and an IC50 greater than 100 µM.

For `Cc1cc(C)c2c(n1)sc1c(=O)n(N)c(C)nc12`, the outcome was “inactive”.

`CC1=C(C)C(N2CCOCC2)CS(=O)(=O)O1` (configuration not stated) gave an EC50 greater than 200 µM and an IC50 greater than 200 µM.

`CCn1c(-c2ccccc2)cs/c1=N\C(P(=O)(O)O)P(=O)(O)O` was tested, and the EC50 was greater than 200 µM and the IC50 was greater than 200 µM.

For `CCOC(=O)/C(=C/c1ccc(N(CCC#N)CCC#N)cc1C)NC(=O)/C=C/c1ccccc1`, the outcome was “inactive”.

In the case of `O=C(/N=C1/OC(CN2CCOCC2)CN1C(=O)Nc1ccccc1)Nc1ccccc1` (configuration not stated), the EC50 is reported as greater than 200 µM and the IC50 is reported as greater than 200 µM.

Molecule `COc1cc(N=O)c(N=O)cc1[N+](=O)[O-]` has an EC50 greater than 170 µM and an IC50 of 15.1 µM.

With `COC(=O)C(/C(=N/N)C(=O)Nc1cccc(O)c1)c1nc2ccccc2[nH]c1=O` (configuration not stated) the EC50 was greater than 34.7 µM and the IC50 was greater than 34.7 µM.
